Measurements reported in patent publication US20120214843A1, “Combination Treatment of Hydroxpyridonate Actinide/Lanthanide Decorporation Agents” (priority 2009, published 2012).

Experiments:
[1] = Pharmacokinetic studies using 14C-labeled ligands; type: in vivo
[2] = Oral removal of injected Pu; type: in vivo; conditions: administered orally to mice or beagles after a Pu injection
From the text: (§1) Oral Activity. Both compounds are orally active actinide chelators: when administered orally to mice or beagles after a Pu injection, 3,4,3-LI-1,2-HOPO and 5-LIO-Me-3,2-HOPO can remove up to 80% and 60%, respectively, of the injected Pu.

[3] = In vivo actinide chelation and removal compared with CaNa3-DTPA; design: species or system mice
From the text: (§2) In vivo Efficacy. […] For example, the efficiency of 3,4,3-LI-1,2-HOPO for clearing circulating Pu from mouse tissues ranges from 100 times (skeleton) to 240 times (soft tissues) that of CaNa3-DTPA in five different protocols. In addition, the optimal activity dose of 3,4,3-LI-1,2-HOPO for removing newly deposited Pu from mice is 2.5% of the dose of CaNa3-DTPA used clinically. The tetradentate 5-LIO-Me-3,2-HOPO has potential therapeutic value for Pu, U, Am and Np, and its efficiency for clearing circulating Pu from mouse tissues ranges from 5 times (skeleton) to 15 times (liver) that of CaNa3-DTPA.
as §1

[4] = Actinide decorporation in mice, all actinides and protocols, comparison of treatments; design: species or system Swiss-Weber mice; conditions: mouse
Description: (§3) Ligand Combination. […] Tetradentate 5-LIO(Me-3,2-HOPO), HOPO (2), is structurally suitable for chelating Np(V) and U(VI). Treatment is likely to be delayed in human contamination with dispersed radionuclides. Those conditions were approached, using mice, by ligand injection ip at 24 h or oral administration at 1 or 24 h after an iv actinide injection. Dosages of (1) and (2) were, respectively, 30 and 100 μmolkg^−1 ip and 100 and 200 μmolkg^−1 oral. Because mixtures of radionuclides may be released, (1) and (2) were combined to take advantage of their differing efficacies for the actinides. Dosages of combined (1) and (2) were, respectively, 30 plus […] injected ip and […] oral. Actinides in all mouse tissues and excreta were determined using published methods.
(§4) Tetradentate 5-LIO(Me-3,2-HOPO), HOPO (2), is structurally suitable for chelating Np(V) and U(VI). Treatment is likely to be delayed in human contamination with dispersed radionuclides. Those conditions were approached, using mice, by ligand injection ip at 24 h or oral administration at 1 or 24 h after an iv actinide injection. Dosages of (1) and (2) were, respectively, 30 and 100 μmolkg-1 ip and 100 and 200 μmolkg-1 oral. […] Actinides in all mouse tissues and excreta were determined using published methods. […]

[5] = Clearing Pu from mouse tissues relative to CaNa3-DTPA; type: in vivo
From the text: as §2

[6] = Actinide decorporation in mice after iv 241Am(III) injection, single or combined HOPO ligands; type: in vivo, Swiss-Weber mice; conditions: ligand injected ip at 24 h
Description: as §3, §4

[7] = Actinide decorporation in mice after iv 238Pu(IV) injection, single or combined HOPO ligands; type: in vivo, Swiss-Weber mice; conditions: ligand injected ip at 24 h
Description: as §3, §4

[8] = Actinide decorporation in mice after iv 233U(VI) injection, single or combined HOPO ligands; type: in vivo, Swiss-Weber mice
Description: as §3
(§5) Tetradentate 5-LIO(Me-3,2-HOPO), HOPO (2), is structurally suitable for chelating Np(V) and U(VI). Treatment is likely to be delayed in human contamination with dispersed radionuclides. Those conditions were approached, using mice, by ligand injection ip at 24 h or oral administration at 1 or 24 h after an iv actinide injection. Dosages of (1) and (2) were, respectively, 30 and 100 μmolkg-1 ip and 100 and 200 μmolkg-1 oral. Because mixtures of radionuclides may be released, (1) and (2) were combined to take advantage of their differing efficacies for the actinides. Dosages of combined (1) and (2) were, respectively, 30 plus 100 μmolkg-1 injected ip and 100 and 200 μmolkg-1 oral. Actinides in all mouse tissues and excreta were determined using published methods.
(§6) Objective: to assay the efficacy of the two ligands at promoting radionuclide excretion with prompt or delayed administration, as single or combined treatments, and to identify target organs and excretion pathways. The test system used Swiss-Weber mice (˜35 g). Actinide loading involves intravenous injection of An-citrate complex at t0. Samples of later taken of the whole skeleton, liver, kidneys, bulk soft tissues, urine, and feces (Σ=100%). (See Table 1.)

[9] = Actinide decorporation in mice after iv 237Np(V) injection, single or combined HOPO ligands; type: in vivo, Swiss-Weber mice
Description: as §3, §5, §6

SMILES: O=C(NCCCN(CCCCN(CCCNC(=O)c1cccc(=O)n1O)C(=O)c1cccc(=O)n1O)C(=O)c1cccc(=O)n1O)c1cccc(=O)n1O [3,4,3-LI(1,2-HOPO)]
- stability to metabolic degradation [1]: stable to metabolic degradation
- injected Pu removed [2]: up to 80%
- removing newly deposited Pu, Np, Am and U from mice, compared with CaNa3-DTPA [3]: significantly more effective
- Pu, Np, Th, Am and Cf chelation in vivo ([3]; mouse, in vivo): highly effective
- in vivo chelation of Pu(IV) and Am(III) [4]: highly effective
- optimal activity dose for removing newly deposited Pu from mice ([5]; mice): 2.5 % of the dose of CaNa3-DTPA used clinically
- efficiency for clearing circulating Pu from mouse tissues, skeleton [5]: 100 times that of CaNa3-DTPA
- efficiency for clearing circulating Pu from mouse tissues, soft tissues ([5]; soft tissues, five different protocols): 240 times that of CaNa3-DTPA
- reduction of liver and skeleton actinide, Am(III) [6]: appreciable and significant reductions
- reduction of liver and skeleton actinide, Pu(IV) [7]: appreciable and significant reductions

SMILES: Cn1ccc(C(=O)NCCOCCNC(=O)c2ccn(C)c(=O)c2O)c(O)c1=O [5-LIO(Me-3,2-HOPO)]
- stability to metabolic degradation [1]: stable to metabolic degradation
- injected Pu removed [2]: ≤ 60%
- removing newly deposited Pu, Np, Am and U from mice, compared with CaNa3-DTPA [3]: significantly more effective
- U(VI) excretion ([8]; ligand given orally at 1 h): about 115 % control
- kidney U(VI) ([8]; ligand given orally at 1 h): 50 % control
- U(VI) excretion ([8]; ligand injected ip at 24 h): about 3 times control
- kidney U(VI) ([8]; ligand injected ip at 24 h): 45 % control
- kidney U(VI) ([8]; oral treatment at 24 h): 70 % control
- efficiency for clearing circulating Pu from mouse tissues, liver ([5]; liver): 15 times that of CaNa3-DTPA
- efficiency for clearing circulating Pu from mouse tissues, skeleton [5]: 5 times that of CaNa3-DTPA
- Np(V) excretion ([9]; ligand given orally at 1 h): about 115 % control
- liver Np(V) ([9]; ligand given orally at 1 h): 25 % control
- Np(V) excretion ([9]; ligand injected ip at 24 h): about 3 times control
- liver Np(V) ([9]; ligand injected ip at 24 h): 30 % control
- liver Np(V) ([9]; oral treatment at 24 h): 50 % control
